What was measured:
[1] = tested on: Sprague-Dawley rats; assay: Amphetamine-induced disruption of auditory evoked potentials (AEP); type: in vivo
From the text: All recordings were made using Spike2 software (Cambridge Electronic Design, Cambridge, UK) running on a Windows PC connected to a 1401 interface (Cambridge Electronic Design, Cambridge, UK). EEG recordings were created by connecting the skull plug to an amplifying head stage (AI 1401, Axon Instruments, Union City, CA, USA), via a 6-channel commutator and cable (Plastics One, Roanoke, VA, USA). The signal was then further amplified with a multichannel amplifier (Cyberamp 380, Axon Instruments, Union City, CA, USA). Auditory stimuli were controlled by the interface via an eight channel power amplifier (SA8, Tucker Davis Technologies, Alachua, FL) connected to a patch panel (PP16, Tucker Davis Technologies), which was connected to speakers located above each cage (TDT Magnetic Speakers, Tucker Davis Technologies). During recording sessions, animals were placed inside standard mouse cages (30 × 15 × 15 cm) and rigged so that the six channel cables could connect with the rest of the apparatus outside of the cage.
Male Sprague-Dawley rats (150–180 g at arrival) were anesthetized with 3% isoflurane and their scalp was shaved and prepared for surgery. An incision was made in the scalp and the skin was retracted to allow direct contact with the skull surface. The skull was cleaned with a dry Q-tip and five holes were drilled through the skull. Three holes were drilled at coordinates AP + 1 mm, ML + 1 mm (reference); AP−4 mm, ML ± 4 mm (leads 1 and 2) relative to bregma, while an additional hole was drilled in the frontal area (ground) and another hole was drilled at the midpoint between the anterior and posterior coordinate (anchor). […]
AEP data analysis: Data were collected and analyzed using Spike2 software (CED Software, Cambridge, UK). […] Then a horizontal cursor was placed at the highest and lowest (peak and trough) point of the P1/N1 wave, for both the wave occurring to the first tone (S1) and to the second tone (S2), and the value was recorded into an Excel spreadsheet. […]

[2] = tested on: Swiss mice; assay: Novel object recognition task, MK-801-induced deficit; type: in vivo
From the text: The test apparatus was based on that described by Ennaceur and Delacour[37] in rats and adapted for use in mice[38]. The apparatus consisted of a uniformly lit (20 lux) PVC enclosure (52 L × 52 W × 40 H cm) with a video camera positioned 160 cm above the bench. The objects to be discriminated were a metal triangle (3.3 cm height, 5.5 cm wide) and a plastic piece of construction game (3 cm height and 3 cm wide). The observer was located in an adjacent room fitted with a video monitoring system. The experiment consisted of 3 sessions. During the first session, male Swiss mice (25–30 g) were allowed to become familiar with the experimental environment for 5 min (S1). Time spent active (animal moving around with or without sniffing and exploration) was measured. […] Times spent exploring the familiar and novel objects were recorded. […] Data (time exploring each of the two objects, in seconds) were analyzed with a two-way ANOVA, with the treatment and the object as the between factors, followed by a Winer analysis for comparing the time spent exploring the familiar versus the novel object for each treatment. […]

[3] = molecular target: T1, rat mGluR3 (Rattus norvegicus, UniProt P31422); assay: [3H]LY341495 binding to membranes
T1 construct: expressed in transfected cells; host or cells: inducible HEK-293 cell line (membranes)
T1 sequence (P31422 23-879): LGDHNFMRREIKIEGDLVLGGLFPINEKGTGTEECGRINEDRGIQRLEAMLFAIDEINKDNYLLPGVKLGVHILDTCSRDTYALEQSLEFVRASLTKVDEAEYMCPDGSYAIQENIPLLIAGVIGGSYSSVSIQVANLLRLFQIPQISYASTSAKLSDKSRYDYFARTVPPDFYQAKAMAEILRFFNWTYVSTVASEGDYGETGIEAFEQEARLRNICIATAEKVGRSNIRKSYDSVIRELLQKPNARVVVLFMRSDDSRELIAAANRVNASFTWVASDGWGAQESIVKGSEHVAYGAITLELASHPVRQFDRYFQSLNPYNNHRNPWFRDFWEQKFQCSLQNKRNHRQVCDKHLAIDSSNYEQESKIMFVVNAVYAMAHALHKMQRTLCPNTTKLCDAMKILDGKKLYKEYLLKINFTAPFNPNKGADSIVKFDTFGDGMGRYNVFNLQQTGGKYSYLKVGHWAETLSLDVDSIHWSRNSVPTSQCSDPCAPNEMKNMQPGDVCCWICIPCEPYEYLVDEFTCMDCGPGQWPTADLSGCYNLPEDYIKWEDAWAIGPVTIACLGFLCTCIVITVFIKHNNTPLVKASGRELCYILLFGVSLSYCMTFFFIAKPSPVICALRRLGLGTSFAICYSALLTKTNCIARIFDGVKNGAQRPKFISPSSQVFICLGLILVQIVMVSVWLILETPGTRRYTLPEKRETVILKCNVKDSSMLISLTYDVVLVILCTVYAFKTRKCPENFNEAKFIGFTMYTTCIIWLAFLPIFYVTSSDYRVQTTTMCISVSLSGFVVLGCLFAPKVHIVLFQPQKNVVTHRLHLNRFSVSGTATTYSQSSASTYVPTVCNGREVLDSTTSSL
Experimental: Membranes were prepared from an inducible HEK-293 cell line expressing rat mGluR2 or mGluR3. Binding assay was adapted from Johnson et al.[29]. Briefly, [^3H]LY341495 (1.4 nM) was evaluated for binding in the presence or in the absence of orthosteric and allosteric ligands. […] Addition of 5–10 μg membrane protein initiated the incubation. After 45 min at room temperature, the incubation was terminated by rapid filtration followed by scintillation counting. Ki’s were calculated using 4-parameter curve fitting.

[4] = molecular target: T2, human mGluR8 (Homo sapiens, UniProt O00222); assay: Multispan Allosteric Profiling panel, Ca2+ (Gqi5); type: cell-based
T2 construct: host or cells: HEK293 co-expressing Gqi5
T2 sequence (O00222 34-908): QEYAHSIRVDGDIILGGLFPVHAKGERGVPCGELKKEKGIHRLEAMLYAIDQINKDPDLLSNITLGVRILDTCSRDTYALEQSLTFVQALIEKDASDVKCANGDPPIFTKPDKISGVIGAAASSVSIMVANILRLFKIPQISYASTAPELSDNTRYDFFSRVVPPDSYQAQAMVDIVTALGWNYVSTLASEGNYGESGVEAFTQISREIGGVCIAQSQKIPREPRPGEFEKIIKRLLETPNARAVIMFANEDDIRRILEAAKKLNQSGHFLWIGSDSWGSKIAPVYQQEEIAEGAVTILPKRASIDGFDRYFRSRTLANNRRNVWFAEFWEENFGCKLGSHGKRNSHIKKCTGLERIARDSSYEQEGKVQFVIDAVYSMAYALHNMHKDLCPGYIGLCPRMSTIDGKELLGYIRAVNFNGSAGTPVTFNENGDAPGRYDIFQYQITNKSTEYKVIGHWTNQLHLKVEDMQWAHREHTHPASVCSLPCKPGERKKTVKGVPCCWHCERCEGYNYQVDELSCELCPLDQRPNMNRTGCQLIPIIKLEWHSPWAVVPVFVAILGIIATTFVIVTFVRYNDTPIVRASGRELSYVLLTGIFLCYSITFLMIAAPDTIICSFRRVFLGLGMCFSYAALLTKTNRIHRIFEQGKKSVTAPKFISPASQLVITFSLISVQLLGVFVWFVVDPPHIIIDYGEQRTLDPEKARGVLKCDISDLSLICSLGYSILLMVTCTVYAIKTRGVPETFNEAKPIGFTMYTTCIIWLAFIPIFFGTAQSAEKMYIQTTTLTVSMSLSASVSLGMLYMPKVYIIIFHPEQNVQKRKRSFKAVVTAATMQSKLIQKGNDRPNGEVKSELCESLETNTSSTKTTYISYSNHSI

Structure (SMILES): CC1(C)CCc2cc(OC[C@@H]3Cn4ccc(=O)nc4O3)ccc21 [SAR218645, (S)-2-(1,1-dimethyl-indan-5-yloxymethyl)-2,3-dihydro-oxazolo[3,2-a]pyrimidin-7-one]
- effect on amphetamine-disrupted auditory gating (S2/S1 ratio) ([1]; 0.3 and 3 mg/kg po, amphetamine 3 mg/kg): attenuated amphetamine-induced disrupted gating
- Minimal active dose ([1]; dose-range 0.3–3, po, Sprague-Dawley rats): 0.3 mg/kg
- effect on preferential investigation of the novel object ([2]; 0.01, 0.03 and 0.1 mg/kg po, coadministered with MK-801 (0.0125 mg/kg, ip)): significantly restored
- Minimal active dose ([2]; dose-range 0.01–1, po, Swiss mice): 0.01 mg/kg
- effect on [3H]LY341495 binding, compound alone ([3]; applied alone): no effect
- effect on glutamate-mediated inhibition of [3H]LY341495 binding ([3]; with glutamate): nor did the drug affect
- effect on glutamate-induced activation ([4]; 10 μM SAR218645): no effect
- calcium response to compound alone ([4]; SAR218645 alone): did not elicit a calcium response

Source: publication PMC5062470, “The mGluR2 positive allosteric modulator, SAR218645, improves memory and attention deficits in translational models of cognitive symptoms associated with schizophrenia” (Scientific Reports, 2016)
